From patent US11331290B2, “Niclosamide for the treatment of cancer metastasis” (Max-Delbrück-Centrum für Molekulare Medizin in der …, priority 2011, dated 2022)

How the values were obtained:
HCT116 cells = test: Anchorage-dependent cell proliferation (MTT), discontinued treatment; format: cell-based, human
Description: For cell proliferation determination of HCT116, SW620, LS174T, SW480 and DLD-1 cells 2×10^3 cells were seeded in 96-well-plates (for each day one plate) and were given 24 hours to attach to the bottom of the well. Cells were from then on treated daily with 1 μM niclosamide or the respective amount of DMSO. For determination of viable cells 3-(4,5-dimethyl-2-thiazol)-2,5-diphenyl-2H-tetrazolium bromide (MTT; Sigma) was added to a final concentration of 0.5 mg per mL and incubated for 3 hours at 37° C. and 5% CO2 in a humidified incubator. […] Crystallized MTT was resolved by 10% SDS in 10 mM HCl and the absorption was measured at 560 nm. […] The average MTT metabolisation was determined of two independent experiments each performed in triplicate.
(A) S100A4 expression in vitro after discontinued niclosamide treatment. HCT116 cells were treated daily with 1 μM niclosamide for three consecutive days, medium was removed on day 4, and S100A4 expression was analyzed 24, 48, and 72 hours after niclosamide removal. S100A4 expression was analyzed by qRT-PCR and immunoblot. […] Cell migration rates of HCT116 cells treated as in (A) were determined by Boyden chamber assay. Differences in control vs. treated cells were analyzed by Student's t test. […] Cell proliferation was determined by MTT assay. […] (E) Luminescence signal from liver metastases and spleen tumors. […]

[1] = system: SW620, LS174T, SW480 and DLD-1 cells; test: Wound healing assay (directed migration); format: cell-based, human; settings: 1 μM daily, 4 days, vs respective solvent-treated control
Description: For wound healing assay HCT116, SW620, LS174T, SW480 and DLD-1 cells were grown to form 60% confluent monolayers of cells in which a wound of about 300 μm width was inflicted with a sterile pipette tip. The medium was exchanged to remove non-adherent cells and the wounded monolayer was treated with 1 μM niclosamide or the respective amount of DMSO every 24 hours for 4 consecutive days. The progress of wound closure was monitored with microphotographs of 10× magnification taken with the Leica DM IL light microscope (Leica Microsystems) on day 0 and day 4. The wound healing experiment was performed three independent times.
(A) S100A4 expression under niclosamide treatment. […] S100A4 expression was analyzed with qRT-PCR and immunoblot. […] Migration rates of cells treated with 1 μM niclosamide for 24 hours were determined in a Boyden chamber assay values were normalized to solvent-treated SW620 cells. […] Invaded cells in the lower chamber were counted and normalized to solvent-treated SW620 cells. Differences in solvent vs. niclosamide-treated cells were analyzed by Student's t test. […] The amount of viable cells per well was determined by MTT assay. […] (G) Quantification of colonies formed. Number of colonies (of more than 4 cells) was counted and normalized to solvent-treated SW620 cells. Differences in solvent vs. niclosamide-treated cells were analyzed by Student's t test. […]

O=C(Nc1ccc([N+](=O)[O-])cc1Cl)c1cc(Cl)ccc1O [niclosamide, 2′,5-dichloro-4′-nitrosalicylanilide]
anchorage-dependent proliferation (HCT116 cells; 1 μM daily, vs solvent-treated control): inhibited
anchorage-dependent proliferation after removal of niclosamide (HCT116 cells; niclosamide removed on day 5, following five days): did not reverse the inhibition of cell proliferation
directed migration (wound healing) [1]: impaired
